{"source": "patent US6218112A", "about": "“Optimization of gene delivery and gene delivery system” (Cobra Therapeutics Limited, priority 1997, dated 2001)", "key": {"Tumor Cells": {"tested_on": "Tumor Cells", "experiment": "In vitro transfection with complexes containing lipidated peptides", "assay_type": "cell-based", "description": "(§1) After incubation the cells are lysed and are assayed for gene expression. In the case of the luciferase reporter gene, luciferin and ATP are added to lysed cells and the light emitted is measured with a luminometer (see deWet et al., supra).\nFor the data provided in FIG. 8, complexes were assembled as described herein using NBC2 and Lip2 as condensing peptides."}, "[1]": {"tested_on": "plasmid nucleic acid pRSVLuc", "experiment": "Surface plasmon resonance (BIAcore) binding kinetics of peptides/conjugates to immobilized biotinylated plasmid DNA", "details": "for ka: apparent rate constant for association; for ka / kd: SPR, PBS, 25° C.; for kd: apparent rate constant for dissociation", "description": "In the examples described below, SPR was detected using the BIAcore system. This machine contained an SPR detector and an integrated microfluidic cartridge which is engineered such that an analyte solution (cationic peptide) is continuously passed over the sensor chip. The sensor chip consists of a glass plate coated with a thin film of gold covered in a layer of carboyxymethyl dextran. The chip used has a dextran layer to which streptavidin is covalently attached. The chip is prepared for use by adding biotinylated nucleic acid which will be bound to the chip via the streptavidin-biotin interaction, and the same chip is used in a series of experiments.\nAs material binds to the immobilized nucleic acid molecule on the sensor chip, the SPR angle of plane polarized light shining on the surface of the chip is monitored by the detector. Changes in angle are defined as resonance units (RU) and data are collected every second. Background effects are detected and automatically subtracted by the use of a control flow cell in line with the nucleic acid flow cell.\nA typical sensorgram has three phases: an association phase, an equilibrium phase and a dissociation phase (see FIG. 1). The rise in signal occurs as more peptide binds to the immobilized plasmid DNA until equilibrium conditions are reached. The height of the peak is directly proportional to the mass of peptide bound. If the flow continues with buffer containing no peptide, peptide begins to dissociate from the complex and the resonance signal is reduced. The sensorgram can be used to compute apparent rate constants for each of the three individual processes.\n(1) dC/dt=ka [PF ] [Pmax -PB ]-kd [PB ]\nMeasurement of Binding Kinetics by Surface Plasmon Resonance\nA 6 kilobase (kb) plasmid DNA (pRSVLuc) was biotinylated using photoactivatable biotin (Pierce and Warriner) as per manufacturer's instructions.\nA sensor chip with immobilized streptavidin (SA5) was conditioned following manufacturer's instructions, i.e., three one-minute injections of 1 M NaCl: 50 mM NaOH followed by one 1 min injection of 0.5% SDS. Flow rate on the BlAcore sensing device was 20 μl per min, running buffer was phosphate buffered saline (PBS). Flow path was flow cells 1 and 2.\nThe flow path was switched to flow cell 2 only and the flow rate was reduced to 10 μl per minute. Biotinylated plasmid at a concentration of […] in 0.5M NaCl was injected for 3 mins.\nPhosphate buffered saline was used as running buffer at a flow rate of 20 μl per minute. The flow path was over flow cells 1 and 2. Flow cell 1 was used as a reference cell. The experiments were carried out at a temperature of 25° C.\nPeptides were injected at various concentrations for three minutes. The injection was followed by a 5 min dissociation phase before the injection port was washed. The sensor chip was regenerated by the injection of 2M NaCl for 1 min. If necessary, this injection was repeated to bring the response back down to baseline before the next peptide sample was injected.\nThe data was analysed using the methods described in the handbook (BIAevaluation 2.1. Software Handbook, Pharmacia Biosensor AB, Uppsala, Sweden).\nEssentially the plots were evaluated as follows: The dissociation constant, kd, was determined first. A curve or family of curves (same NBC at different concentrations) were plotted as response (Y) versus time as Ln (Yo/Y) versus time. In the area where the Ln(Yo/Y) curve was linear, a fit of the default dissociation model [AB]=[A]+[B] was made. The association constant, ka, was then calculated by fitting the related association model on that part of the association curve where a plot of In(abs(dY/dt) versus time was linear. KD were approximated by dividing the calculated kd with the calculated ka."}, "Jurkat cell line": {"tested_on": "Jurkat cell line", "experiment": "In vitro transfection with pRSVLuc (luciferase) condensed on peptides", "assay_type": "cell-based", "details": "peptide 2 μg/μg plasmid DNA", "description": "as §1\nCell lines such as Jurkat and K562 grow in suspension and can be transfected and the level of transgene expression (luciferase activity) determined b) the following method. Cells are harvested on the day of assay by centrifugation at 1200 rpm for 5 mins at room temperature. The cell pellet is resuspended in phosphate buffered saline and re-centrifuged. This operation is performed twice. […] The cells are then aliquoted into tubes and 0.75 ml of RPMI medium added, followed by 0.04-0.08 ml of 100 mM Chloroquine and finally 0.25 ml of DNA-complex solution. The transfection is then allowed to proceed by incubating the cells at 37° C. for 4 h. After this time the cells are harvested by centrifugation at 2000 rpm. The cells are then suspended in 1 ml of RPMI medium and re-centrifuged. Finally the cells are suspended in 0.5 ml RPMI medium containing 10% foetal bovine serum. Each 0.5 ml of transfected cell suspension is transferred to a well of a 12 well plastic culture plate containing 1.5 ml of RPMI 10% FBS. The original transfection tube is rinsed with a further 1 ml of medium and the wash transferred to the culture dish making a final volume of 3 ml. The culture plate is then incubated at 37° C. for 24-90 h in an atmosphere of 5% CO2. The contents of each well in the culture dish are transferred to centrifuge tubes and the cells collected by centrifugation at 13000 rpm. The pellet is resuspended in 0.12 ml of Lysis Buffer (100 mM sodium phosphate, pH 7.8; 8 mM magnesium chloride, 1 mM EDTA; 1% Triton X-100 and 15% glycerol) and agitated with a pipette. The lysate is centrifuged at 13000 rpm for 1 min and the supernatant collected. 80 μl of the supernatant are transferred to a luminometer tube. The luciferase activity is then assayed using a Berthold Lumat L9501 luminometer. The assay buffer used is Lysis Buffer containing 10 mM Luciferin and 100 mM ATP. Light produced by the luciferase is integrated over 4s and is described as relative light units (RLU). The data are converted to RLU/ml of lysate, RLU/cell or RLU/mg protein (protein concentration of the lysate having been determined in this case by the BioRAD Lowry assay.\nIn order to compare the relative efficiency of transfection of complexes composed of different NBC condensation peptides or poly-L-lysine, pRSVLuc DNA at a concentration of 100 μg/ml was condensed using peptide at a ratio of 2 μg/μg plasmid DNA as described herein with the following deviation: prior to addition to the cells (Jurkat cell line) the complexes were diluted to 20 μg/ml with 10% PEG 10 000; 37 mM sodium chloride; 25 mM sodium phosphate, pH 7.4. The cells were assayed for luciferase after 24 h."}, "cells": {"tested_on": "cells", "experiment": "Transfection efficiency / activity of complexes (general statement)", "assay_type": "cell-based", "details": "related to affinity for nucleic acid"}, "[2]": {"tested_on": "KLN-205 squamous epithelial syngenic tumour cells", "experiment": "In vivo transfection of KLN-205 tumours in DBA2 mice by local injection of peptide/plasmid complexes (nitroreductase immunostaining)", "set-up": "species or system mouse", "details": "0.5 μg peptide/μg DNA, intratumoural injection", "description": "A representative in via cell transfection system is transfection of tumor cells using a murine carcinoma model.\nThe murine carcinoma model DBA2 containing the squamous epithelial syngenic tumour cell line KLN-205 was prepared as described in the Examples. A transfecting complex was prepared using a solution of plasmid DNA encoding a reporter gene or, for example, nitroreductase and a selected NBC peptide 0.5 μg peptide/μg DNA, as described herein. Where desired, a conjugate peptide was added to the transfecting complex, at a concentration of 0.1-0.3 μg […] peptide/μg DNA.\nTransfection efficiency may be determined in a number of ways, including assessing the effect of the reporter gene on the target tissue, or by quantitating the gene product. Below, tissues samples were obtained and nitroreductase gene expression was ascertained via staining of tissue sections.\nThe ability to transfect tumor cells in vivo in mice was tested using plasmid nucleic acid carrying the nitroreductase reporter gene condensed on each of the following peptides: NBC15, NBC8, NBC9, NBC11, NBC7.\nDBA2--male mice, aged 5-10 weeks were injected subcutaneously in each flank with a squamous epithelial syngenic tumour cell line KLN-205. The cell line was grown up in 175 ml T-flasks in standard EMEM medium containing 10% foetal calf serum. When the cells reached a density of 4×10^6 they were suspended by a standard trypsinization technique, washed in PBS and diluted to a final concentration of […].\nThe anaesthetic was Enflurane (Alynane; Anaquest, Ltd., Windlesham, Surrey UK): Ketamine (10% Ketaset, Willows Francis Veterinary, Cramley, West Sussex, UK); Rompun (2%, Bayer UK, Ltd., Suffolk, UK). For 10 ml anaesthetic mixture: 8.5 ml PBS; 1 ml Ketamine; 0.5 ml Rompun. Each animal was injected intra-peritoneally with 200 μl/animal using 1 ml syringe with 25 gauge needle. Once anaesthetized, the tumour is manipulated between the fingers lifting it slightly away from the animal's body and at the same time apply minimum pressure to the tumour. Using a 0.5 ml insulin needle the formulated delivery vehicle (a plasmid containing the E. coli nitroreductase gene condensed on a peptide at a ratio of 0.5 μg peptide/μg DNA) to be injected is taken up and the tumour is injected horizontally trying to avoid any visible blood vessels and necrotic or abnormal tissue. Daily monitoring is continued until the experiment is terminated.\n7μ sections of frozen tumour tissue are prepared using standard methods and a Cryostat and air dried. Sections are fixed with freshly prepared 4% PFA/PBS for 30 mins at room temperature and then washed twice with 0.01% Tween-20/PBS 5 mins each wash. Sections are then immersed in 0.25% hydrogen peroxide/PBS, at room temperature (20C.) for 30 mins, and then washed three times in 0.01% Tween 20/PBS for 5 mins each wash. Sections are then permeabilised by treatment with ice cold 0.1 % TRITON X-100 for 5 mins, followed by a further two washes in 0.01% Tween-20/PBS 5mins each wash. The sections are then blocked with 5% NGS/PBS 60mins at room temperature in a wetbox. After decanting the blocking solution, 0.5 ml diluted antiserum/slide (1:400 in 2.5% NGS) is added and the sections incubated for 60 mins at room temperature. Slides are then washed three times in 0.01% Tween-20/PBS 5 mins each wash. Secondary antibody (0.5 ml) from ABC Elite Vector stain kit is added as follows and incubated 30 mins at room temperature in a wetbox.\nThe tumour is a murine syngenic squamous carcinoma produced by subcutaneous injection of KLN205 cells. When the tumours were approximately 4 mm in diameter they were injected with 20 μl of plasmid DNA formulated with the NBC15 peptide. After 48 h the tumours were excised and sectioned by standard histological techniques and immunostained for expression of the transgene (E. coli nitroreductase). […] In this case the tumours were injected with the same plasmid formulated in 0.5 μg NBC9 peptide/μg DNA."}}, "note": "“Also recorded” adds a separate entry of the source. * marks the point of attachment. Palmitoyl = CCCCCCCCCCCCCCCC(=O)*; Acm = CC(=O)NC*"}
{"substance": "CH3-(CH2)14-CONH-KPKAAKPKKPKKKRKVEKKSPKKAKKPAAC(Acm)SEQ ID NO:11-COOH (Palmitoyl-KPKAAKPKKPKKKRKVEKKSPKKAKKPAAC(Acm)-OH; SMILES CCCCCCCCCCCCCCCC(=O)N[C@@H](CCCCN)C(=O)N1CCC[C@H]1C(=O)N[C@@H](CCCCN)C(=O)N[C@@H](C)C(=O)N[C@@H](C)C(=O)N[C@@H](CCCCN)C(=O)N1CCC[C@H]1C(=O)N[C@@H](CCCCN)C(=O)N[C@@H](CCCCN)C(=O)N1CCC[C@H]1C(=O)N[C@@H](CCCCN)C(=O)N[C@@H](CCCCN)C(=O)N[C@@H](CCCCN)C(=O)N[C@@H](CCCNC(=N)N)C(=O)N[C@@H](CCCCN)C(=O)N[C@H](C(=O)N[C@@H](CCC(=O)O)C(=O)N[C@@H](CCCCN)C(=O)N[C@@H](CCCCN)C(=O)N[C@@H](CO)C(=O)N1CCC[C@H]1C(=O)N[C@@H](CCCCN)C(=O)N[C@@H](CCCCN)C(=O)N[C@@H](C)C(=O)N[C@@H](CCCCN)C(=O)N[C@@H](CCCCN)C(=O)N1CCC[C@H]1C(=O)N[C@@H](C)C(=O)N[C@@H](C)C(=O)N[C@@H](CSCNC(C)=O)C(=O)O)C(C)C) [Lip2]", "values": [{"measurement": "transfection efficiency, lipidated peptide with free underivatized peptide", "setting": "Tumor Cells; Lip2 with NBC2, FIG. 8", "result": "transfection efficiency is augmented; also recorded: more than two orders of magnitude"}, {"measurement": "transfection efficiency, condensation with lipidated peptide alone", "setting": "Tumor Cells; complete condensation with palmitoyl-NBC2 (Lip2) alone", "result": "extremely poor transfection efficiencies"}]}
{"substance": "H-TKKKKKKKKKKKKKKKKKKC-OH [NBC14]", "values": [{"measurement": "ka", "setting": "[1]", "result": 211000, "unit": "M⁻¹ s⁻¹"}, {"measurement": "kd", "setting": "[1]", "result": 0.00075, "unit": "s⁻¹"}, {"measurement": "transfection compared with polydisperse poly-L-lysine", "setting": "Jurkat cell line; luciferase", "result": "significantly better transfection agents than the polydisperse poly-L-lysine"}]}
{"substance": "NH2-KKSPKKAKKPAAKKSPKKAKKPAAKKSPKKAKKPAAKKSPKKAKKPAYC(Acm)-COOH (H-KKSPKKAKKPAAKKSPKKAKKPAAKKSPKKAKKPAAKKSPKKAKKPAYC(Acm)-OH) [NBC10]", "values": [{"measurement": "ka", "setting": "[1]", "result": 219000, "unit": "M⁻¹ s⁻¹"}, {"measurement": "kd", "setting": "[1]", "result": 0.0011, "unit": "s⁻¹"}, {"measurement": "apparent dissociation constant kd", "setting": "[1]; approximate values", "result": "approximately 1×10^-3 sec^-1"}, {"measurement": "Kd", "setting": "[1]; approximate values, read-out: equilibrium dissociation constant KD", "result": "~5", "unit": "nM"}, {"measurement": "transfection efficiency", "setting": "cells", "result": "not completely deleterious to transfection"}]}
{"substance": "poly-lysine [reference compound]", "values": [{"measurement": "ranking by numbers of transfected tumor cells (most to least efficient)", "setting": "[2]", "result": "NBC15>NBC8, NBC9, NBC11>NBC7>>>poly-lysine"}, {"measurement": "number of transfected tumor cells / level of transfection", "setting": "[2]; 48 h, nitroreductase immunostaining", "result": "the fewest number of transfected tumor cells"}, {"measurement": "rank in order of relative transfection efficiency (most to least efficient)", "setting": "Jurkat cell line; luciferase after 24 h, FIG. 7", "result": "NBC11>NBC13>NBC8>>NBC15>>>polylysine"}]}
